Measured values as given in ChEMBL document CHEMBL3885881, “DrugMatrix”.

Species on record: Rattus norvegicus
Test: DrugMatrix - Regimen: Daily Repeat
Format: toxicity, organism-based, Sprague-Dawley
Design: regimen Daily Repeat, gender Male, age 6-8 weeks
Settings: in vivo, route none, vehicle 100 % UNTREATED
[1] = 0 mg/kg, 120 h, tissue Blood, dose level Control, time 5 day
[2] = 0 mg/kg, 120 h, tissue Plasma, dose level Control, time 5 day
[3] = 0 mg/kg, […], tissue Blood, dose level Control, time 14 day
[4] = 0 mg/kg, […], tissue Plasma, dose level Control, time 14 day
[5] = 50 mg/kg, 120 h, tissue Blood, dose level Low, time 5 day
[6] = 50 mg/kg, 120 h, tissue Plasma, dose level Low, time 5 day
[7] = 50 mg/kg, […], tissue Blood, dose level Low, time 14 day
[8] = 50 mg/kg, […], tissue Plasma, dose level Low, time 14 day
[9] = 60 mg/kg, 120 h, tissue Blood, dose level M1, time 5 day

Diet_Restriction
ABSOLUTE BASOPHIL [1]: 0 CELLS/uL | ABSOLUTE EOSINOPHIL [1]: 42.67 CELLS/uL | ABSOLUTE LYMPHOCYTE [1]: 11593.33 CELLS/uL | ABSOLUTE MONOCYTE [1]: 174.33 CELLS/uL | ABSOLUTE SEGMENTED NEUTROPHIL [1]: 1356.33 CELLS/uL | BASOPHIL [1]: 0% | EOSINOPHIL [1]: 0.33% | ERYTHROCYTE COUNT [1]: 5.67 x10E6/uL | HEMATOCRIT [1]: 43.37% | HEMOGLOBIN [1]: 12.33 G/DL | LEUKOCYTE COUNT [1]: 13.17 x10E3/uL | LYMPHOCYTE [1]: 88% | MEAN CORPUSCULAR HEMOGLOBIN [1]: 21.77 pg | MEAN CORPUSCULAR HEMOGLOBIN CONCENTRATION [1]: 36.93 G/DL | MEAN CORPUSCULAR VOLUME [1]: 58.9 fL | NUCLEATED RED BLOOD CELLS [1]: 0 /100WBC | PLATELET COUNT [1]: 942.33 x10E3/uL | ALANINE AMINOTRANSFERASE [2]: 42.67 u/L | ALBUMIN [2]: 4.2 G/DL | ALKALINE PHOSPHATASE [2]: 336.33 u/L | ASPARTATE AMINOTRANSFERASE [2]: 74 u/L | BLOOD UREA NITROGEN [2]: 12.67 mg/dL | CARBON DIOXIDE [2]: 32.33 mmol/L | CHOLESTEROL [2]: 78.67 mg/dL | CREATINE PHOSPHOKINASE [2]: 847.33 u/L | CREATININE [2]: 0.22 mg/dL | LACTATE DEHYDROGENASE [2]: 139.67 u/L | POTASSIUM [2]: 6.74 MEQ/L | TOTAL BILIRUBIN [2]: 0.13 mg/dL | URIC ACID [2]: 1.3 mg/dL | ABSOLUTE BASOPHIL [3]: 0 CELLS/uL | ABSOLUTE EOSINOPHIL [3]: 46.33 CELLS/uL | ABSOLUTE LYMPHOCYTE [3]: 13977 CELLS/uL | ABSOLUTE MONOCYTE [3]: 264.67 CELLS/uL | ABSOLUTE SEGMENTED NEUTROPHIL [3]: 1445.33 CELLS/uL | BASOPHIL [3]: 0% | EOSINOPHIL [3]: 0.33% | ERYTHROCYTE COUNT [3]: 6.27 x10E6/uL | LEUKOCYTE COUNT [3]: 15.73 x10E3/uL | LYMPHOCYTE [3]: 89% | MEAN CORPUSCULAR HEMOGLOBIN [3]: 22.27 pg | MEAN CORPUSCULAR HEMOGLOBIN CONCENTRATION [3]: 37.13 G/DL | NEUTROPHIL [3]: 9% | NUCLEATED RED BLOOD CELLS [3]: 0 /100WBC | PLATELET COUNT [3]: 923 x10E3/uL | ALANINE AMINOTRANSFERASE [4]: 48.67 u/L | ALKALINE PHOSPHATASE [4]: 360 u/L | ASPARTATE AMINOTRANSFERASE [4]: 67 u/L | CARBON DIOXIDE [4]: 32 mmol/L | CHLORIDE [4]: 99 MEQ/L | CHOLESTEROL [4]: 92.67 mg/dL | CREATINE PHOSPHOKINASE [4]: 220.67 u/L | CREATININE [4]: 0.19 mg/dL | LACTATE DEHYDROGENASE [4]: 88.33 u/L | LIPASE [4]: 10 u/L | PHOSPHORUS [4]: 13.07 mg/dL | POTASSIUM [4]: 6.69 MEQ/L | TOTAL BILIRUBIN [4]: 0.17 mg/dL | TOTAL PROTEIN [4]: 6.33 G/DL | URIC ACID [4]: 1.9 mg/dL | ABSOLUTE BASOPHIL [5]: 0 CELLS/uL | ABSOLUTE EOSINOPHIL [5]: 0 CELLS/uL | ABSOLUTE LYMPHOCYTE [5]: 5557.67 CELLS/uL | ABSOLUTE MONOCYTE [5]: 33.33 CELLS/uL | ABSOLUTE SEGMENTED NEUTROPHIL [5]: 409 CELLS/uL | BASOPHIL [5]: 0% | EOSINOPHIL [5]: 0% | ERYTHROCYTE COUNT [5]: 6.2 x10E6/uL | HEMOGLOBIN [5]: 13.47 G/DL | LEUKOCYTE COUNT [5]: 6 x10E3/uL | LYMPHOCYTE [5]: 93% | MEAN CORPUSCULAR HEMOGLOBIN [5]: 21.73 pg | MEAN CORPUSCULAR HEMOGLOBIN CONCENTRATION [5]: 37.13 G/DL | MEAN CORPUSCULAR VOLUME [5]: 58.43 fL | MONOCYTE [5]: 0.67% | NEUTROPHIL [5]: 6.33% | NUCLEATED RED BLOOD CELLS [5]: 0 /100WBC | PLATELET COUNT [5]: 1004.67 x10E3/uL | ALBUMIN [6]: 4.4 G/DL | ALKALINE PHOSPHATASE [6]: 272.67 u/L | ASPARTATE AMINOTRANSFERASE [6]: 69 u/L | BLOOD UREA NITROGEN [6]: 10 mg/dL | CHOLESTEROL [6]: 67.33 mg/dL | CREATININE [6]: 0.15 mg/dL | GLUCOSE [6]: 121.33 mg/dL | LACTATE DEHYDROGENASE [6]: 95.33 u/L | LIPASE [6]: 10 u/L | PHOSPHORUS [6]: 10.03 mg/dL | POTASSIUM [6]: 6.08 MEQ/L | SODIUM [6]: 146.6 MEQ/L | TOTAL BILIRUBIN [6]: 0.13 mg/dL | TOTAL PROTEIN [6]: 6.27 G/DL | URIC ACID [6]: 1.13 mg/dL | ABSOLUTE BASOPHIL [7]: 0 CELLS/uL | ABSOLUTE EOSINOPHIL [7]: 34 CELLS/uL | ABSOLUTE LYMPHOCYTE [7]: 10004 CELLS/uL | ABSOLUTE MONOCYTE [7]: 145.67 CELLS/uL | ABSOLUTE SEGMENTED NEUTROPHIL [7]: 1049.67 CELLS/uL | BASOPHIL [7]: 0% | EOSINOPHIL [7]: 0.33% | ERYTHROCYTE COUNT [7]: 7.11 x10E6/uL | HEMATOCRIT [7]: 38.27% | LEUKOCYTE COUNT [7]: 11.23 x10E3/uL | LYMPHOCYTE [7]: 89.33% | MEAN CORPUSCULAR HEMOGLOBIN [7]: 19.8 pg | MEAN CORPUSCULAR HEMOGLOBIN CONCENTRATION [7]: 36.77 G/DL | MEAN CORPUSCULAR VOLUME [7]: 53.83 fL | NEUTROPHIL [7]: 9% | NUCLEATED RED BLOOD CELLS [7]: 0 /100WBC | PLATELET COUNT [7]: 891.33 x10E3/uL | ALANINE AMINOTRANSFERASE [8]: 40.33 u/L | ALBUMIN [8]: 4.2 G/DL | ALKALINE PHOSPHATASE [8]: 255.67 u/L | ASPARTATE AMINOTRANSFERASE [8]: 75 u/L | BLOOD UREA NITROGEN [8]: 15 mg/dL | CHOLESTEROL [8]: 62.33 mg/dL | CREATINE PHOSPHOKINASE [8]: 467.33 u/L | CREATININE [8]: 0.22 mg/dL | GLUCOSE [8]: 163.67 mg/dL | LACTATE DEHYDROGENASE [8]: 62.33 u/L | POTASSIUM [8]: 5.28 MEQ/L | TOTAL BILIRUBIN [8]: 0.1 mg/dL | TOTAL PROTEIN [8]: 6.1 G/DL | URIC ACID [8]: 1.5 mg/dL | ABSOLUTE BASOPHIL [9]: 0 CELLS/uL | ABSOLUTE EOSINOPHIL [9]: 49.33 CELLS/uL | ABSOLUTE LYMPHOCYTE [9]: 3766.67 CELLS/uL | ABSOLUTE MONOCYTE [9]: 29.33 CELLS/uL | ABSOLUTE SEGMENTED NEUTROPHIL [9]: 454.67 CELLS/uL
